The text below walks through data of patent US11046680B1, “Heteroaryl-substituted triazoles as APJ receptor agonists” (priority 2016, dated 2021).

In general, EC50 refers to the concentration at which the effect is half-maximal.

A value given as a limit tells only on which side of the number the result lay.

Sequence of human APJ receptor (P35414 whole entry): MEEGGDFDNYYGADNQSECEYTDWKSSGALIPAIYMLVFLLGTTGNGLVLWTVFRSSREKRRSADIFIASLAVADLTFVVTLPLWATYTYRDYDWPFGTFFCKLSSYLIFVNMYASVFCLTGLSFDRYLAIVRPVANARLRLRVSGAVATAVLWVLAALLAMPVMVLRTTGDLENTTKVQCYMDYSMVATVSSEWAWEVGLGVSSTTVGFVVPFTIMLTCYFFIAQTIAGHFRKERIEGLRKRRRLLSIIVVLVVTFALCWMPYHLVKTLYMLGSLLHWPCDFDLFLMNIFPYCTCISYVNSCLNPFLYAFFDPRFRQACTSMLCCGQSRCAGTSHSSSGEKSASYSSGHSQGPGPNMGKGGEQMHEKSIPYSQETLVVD

In this test the target is human APJ receptor (Homo sapiens (Human), UniProt P35414). The test can be described thus: biochemical. Conditions: [35S]GTPγS binding, CHO membranes expressing human APJ receptor; read-out: Activity hAPJ SPA EC50 IP. The test is classed as biochemical. An outline of the steps:
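Membranes of a stable CHO line carrying human APJ (pFLAG-CMV-3) were used in a GTPγS binding format; buffer GDP, MgCl2 and NaCl were optimized, and plates were read after 90 min at RT.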
For orientation: GTPγS resists hydrolysis and so accumulates on activated G proteins.
Consider `COc1cccc(OC)c1-n1c(NS(=O)(=O)[C@H](C)Cc2ncc(F)cn2)nnc1-c1nc(C)cs1` [Example 100.0], for which the EC50 is 3 nM.

In the case of `COc1ccc(N2CCCC2=O)cc1-n1c(NS(=O)(=O)CCc2ccc(Cl)cc2)nnc1-c1cccs1` [Example 125.0, 2-(4-Chlorophenyl)-N-(4-(2-methoxy-5-(2-oxo-1-pyrrolidinyl)phenyl)-5-(2-thiophenyl)-4H-1,2,4-triazol-3-yl)ethanesulfonamide], the EC50 is 24 nM.

Regarding `COc1cccc(OC)c1-n1c(NS(=O)(=O)[C@H](C)Cc2ncc(F)cn2)nnc1-c1ncccn1` (single isomer, unassigned) [Example 58.0, (R)-N-(4-(2,6-dimethoxyphenyl)-5-(pyrimidin-2-yl)-4H-1,2,4-triazol-3-yl)-1-(5-fluoropyrimidin-2-yl)propane-2-sulfonamide or (S)-N-(4-(2,6-dimethoxyphenyl)-5-(pyrimidin-2-yl)-4H-1,2,4-triazol-3-yl)-1-(5-fluoropyrimidin-2-yl)propane-2-sulfonamide], the EC50 amounted to 17 nM.

For the compound `COc1cccc(OC)c1-n1c(NS(=O)(=O)[C@H](C)[C@H](O)c2ncc(C)cn2)nnc1-c1nc(C)cs1` (single isomer, unassigned) [Example 317.0, (1R,2R)-N-(4-(2,6-dimethoxyphenyl)-5-(4-methylthiazol-2-yl)-4H-1,2,4-triazol-3-yl)-1-hydroxy-1-(5-methylpyrimidin-2-yl)propane-2-sulfonamide or (1S,2S)-N-(4-(2,6-dimethoxyphenyl)-5-(4-methylthiazol-2-yl)-4H-1,2,4-triazol-3-yl)-1-hydroxy-1-(5-methylpyrimidin-2-yl)propane-2-sulfonamide], the 50% effective concentration (EC50) amounted to 6.6 nM.

In the case of `CCc1nc(-c2nnc(NS(=O)(=O)CCc3ncc(F)cn3)n2-c2c(OC)cccc2OC)cs1` [Example 99.0, N-(4-(2,6-dimethoxyphenyl)-5-(2-ethylthiazol-4-yl)-4H-1,2,4-triazol-3-yl)-2-(5-fluoropyrimidin-2-yl)ethanesulfonamide], the EC50 stood at 13 nM.

`COc1cnc([C@@H](OC)[C@H](C)S(=O)(=O)Nc2nnc(-c3ccn(C)n3)n2-c2c(OC)cccc2OC)cn1` (single isomer, unassigned) [Example 309.0, (1R,2S)-N-(4-(2,6-dimethoxyphenyl)-5-(1-methyl-1H-pyrazol-3-yl)-4H-1,2,4-triazol-3-yl)-1-methoxy-1-(5-methoxy-2-pyrazinyl)-2-propanesulfonamide or (1S,2R)-N-(4-(2,6-dimethoxyphenyl)-5-(1-methyl-1H-pyrazol-3-yl)-4H-1,2,4-triazol-3-yl)-1-methoxy-1-(5-methoxy-2-pyrazinyl)-2-propanesulfonamide]: the EC50 is 34 nM.

Take `COc1cccc(OC)c1-n1c(NS(=O)(=O)CCc2ccc(Cl)cc2)nnc1-c1cocn1` [Example 139.0, 2-(4-chlorophenyl)-N-(4-(2,6-dimethoxyphenyl)-5-(oxazol-4-yl)-4H-1,2,4-triazol-3-yl)ethanesulfonamide]: the EC50 amounted to 118 nM.

Regarding `COc1cccc(OC)c1-n1c(NS(=O)(=O)CCc2ccc(Cl)cc2)nnc1-c1cncs1` [Example 137.0, 2-(4-chlorophenyl)-N-(4-(2,6-dimethoxyphenyl)-5-(thiazol-5-yl)-4H-1,2,4-triazol-3-yl)ethanesulfonamide], the EC50 was 30 nM.

For `COc1cccc(OC)c1-n1c(NS(=O)(=O)[C@@H](C)[C@H](C)c2ncc(Cl)cn2)nnc1-c1ccn(C(F)F)n1` [Example 222.0, (2S,3R)-3-(5-chloro-2-pyrimidinyl)-N-(5-(1-(difluoromethyl)-1H-pyrazol-3-yl)-4-(2,6-dimethoxyphenyl)-4H-1,2,4-triazol-3-yl)-2-butanesulfonamide], the EC50 was 0.11 nM.

Turning to `COc1ncnc(OC)c1-n1c(NS(=O)(=O)[C@@H](C)[C@H](C)c2ncc(C)cn2)nnc1-c1n[nH]c2ccccc12` [Example 427.0, (2S,3R)-N-(4-(4,6-dimethoxypyrimidin-5-yl)-5-(1H-indazol-3-yl)-4H-1,2,4-triazol-3-yl)-3-(5-methylpyrimidin-2-yl)butane-2-sulfonamide], the EC50 worked out at 21 nM.

For `COc1cccc(OC)c1-n1c(NS(=O)(=O)CCc2ccc(Cl)cc2)nnc1-c1csc(C)n1` [Example 149.0, 2-(4-chlorophenyl)-N-(4-(2,6-dimethoxyphenyl)-5-(2-methylthiazol-4-yl)-4H-1,2,4-triazol-3-yl)ethanesulfonamide], the EC50 was found to be 27 nM.

Consider `COc1cccc(OC)c1-n1c(NS(=O)(=O)[C@@H](C)[C@H](OC)c2ncc(C)cn2)nnc1-c1ccn(C)n1` [Example 200.0, (1R,2S)-N-(4-(2,6-dimethoxyphenyl)-5-(1-methyl-1H-pyrazol-3-yl)-4H-1,2,4-triazol-3-yl)-1-methoxy-1-(5-methyl-2-pyrimidinyl)-2-propanesulfonamide], for which the concentration for a half-maximal effect (EC50) is 0.79 nM.

For `CCn1ccc(-c2nnc(NS(=O)(=O)[C@@H](C)[C@H](OC)c3ncc(Cl)cn3)n2-c2c(OC)cccc2OC)n1` [Example 393.0, (1R,2S)-1-(5-chloropyrimidin-2-yl)-N-(4-(2,6-dimethoxyphenyl)-5-(1-ethyl-1H-pyrazol-3-yl)-4H-1,2,4-triazol-3-yl)-1-methoxypropane-2-sulfonamide], the EC50 amounted to 0.47 nM.

On to `COc1cccc(OC)c1-n1c(NS(=O)(=O)[C@@H](C)[C@H](O)c2cn3ccccc3n2)nnc1-c1ccn(C)n1` (single isomer, unassigned) [Example 350.0, (1R,2S)-N-(4-(2,6-Dimethoxyphenyl)-5-(1-methyl-1H-pyrazol-3-yl)-4H-1,2,4-triazol-3-yl)-1-hydroxy-1-imidazo[1,2-a]pyridin-2-yl-2-propanesulfonamide or (1S,2R)-N-(4-(2,6-dimethoxyphenyl)-5-(1-methyl-1H-pyrazol-3-yl)-4H-1,2,4-triazol-3-yl)-1-hydroxy-1-imidazo[1,2-a]pyridin-2-yl-2-propanesulfonamide], for which the EC50 is 6.1 nM.

Consider `COc1cccc(OC)c1-n1c(NS(=O)(=O)[C@@H](C)[C@H](OC)c2ncc(C)cn2)nnc1-c1cc(C)on1` [Example 425.0, (1R,25)-N-(4-(2,6-dimethoxyphenyl)-5-(5-methylisoxazol-3-yl)-4H-1,2,4-triazol-3-yl)-1-sulfonamide], for which the EC50 worked out at 8.1 nM.

With `COc1cccc(OC)c1-n1c(NS(=O)(=O)C[C@H](O)c2ccc(Cl)cc2)nnc1-c1ccn(C)n1` (single isomer, unassigned) [Example 374.0, (R)-2-(4-Chlorophenyl)-N-(4-(2,6-dimethoxyphenyl)-5-(1-methyl-1H-pyrazol-3-yl)-4H-1,2,4-triazol-3-yl)-2-hydroxyethanesulfonamide or (R)-2-(4-chlorophenyl)-N-(4-(2,6-dimethoxyphenyl)-5-(1-methyl-1H-pyrazol-3-yl)-4H-1,2,4-triazol-3-yl)-2-hydroxyethanesulfonamide], the EC50 was 7 nM.

`COc1cccc(OC)c1-n1c(NS(=O)(=O)CCc2ccc(Cl)cc2)nnc1-c1cscn1` [Example 91.0, 2-(4-chlorophenyl)-N-(4-(2,6-dimethoxyphenyl)-5-(thiazol-4-yl)-4H-1,2,4-triazol-3-yl)ethanesulfonamide]: the EC50 was 26 nM.

Consider `COc1ccc(N2CCC2=O)cc1-n1c(NS(=O)(=O)CCc2ccc(Cl)cc2)nnc1-c1cccs1` [Example 126.0, 2-(4-Chlorophenyl)-N-(4-(2-methoxy-5-(2-oxo-1-azetidinyl)phenyl)-5-(2-thiophenyl)-4H-1,2,4-triazol-3-yl)ethanesulfonamide], for which the EC50 is 11 nM.

On to `CO[C@H](c1ncc(Cl)cn1)[C@H](C)S(=O)(=O)Nc1nnc(-c2cnn3ccccc23)n1C1CC1` [Example 507.0, (1R,2S)-1-(5-chloropyrimidin-2-yl)-N-(4-cyclopropyl-5-(pyrazolo[1,5-a]pyridin-3-yl)-4H-1,2,4-triazol-3-yl)-1-methoxypropane-2-sulfonamide], for which the EC50 is 38 nM.

Consider `CCO[C@H](c1ncc(C)cn1)[C@H](C)S(=O)(=O)Nc1nnc(-c2cc3n(n2)CCC3)n1-c1c(OC)cccc1OC` [Example 217.0, (1R,2S)-N-(5-(5,6-dihydro-4H-pyrrolo[1,2-b]pyrazol-2-yl)-4-(2,6-dimethoxyphenyl)-4H-1,2,4-triazol-3-yl)-1-ethoxy-1-(5-methyl-2-pyrimidinyl)-2-propanesulfonamide], for which the half-maximal effective concentration (EC50) turned out to be 2.8 nM.

Turning to `COc1cccc(OC)c1-n1c(NS(=O)(=O)[C@@H](C)[C@H](OC)c2ncc(Cl)cn2)nnc1-c1noc2ccccc12` [Example 83.0, (1R,2S)-N-(5-(benzo[d]isoxazol-3-yl)-4-(2,6-dimethoxyphenyl)-4H-1,2,4-triazol-3-yl)-1-(5-chloropyrimidin-2-yl)-1-methoxypropane-2-sulfonamide], the EC50 worked out at 1.9 nM.

Turning to `O=S(=O)(Cc1ccc(Cl)cc1)Nc1nnc(-c2cccs2)n1-c1ccccc1C(F)(F)F` [Example 356.0, 1-(4-Chlorophenyl)-N-(5-(thiophen-2-yl)-4-(2-(trifluoromethyl)phenyl)-4H-1,2,4-triazol-3-yl)methanesulfonamide], the EC50 was more than 12500 nM.

Take `COc1cccc(OC)c1-n1c(NS(=O)(=O)[C@@H](C)[C@H](C)c2ncc(C)cn2)nnc1-c1cnn2c1CCC2` [Example 487.0, (2S,3R)-N-(5-(5,6-dihydro-4H-pyrrolo[1,2-b]pyrazol-3-yl)-4-(2,6-dimethoxyphenyl)-4H-1,2,4-triazol-3-yl)-3-(5-methylpyrimidin-2-yl)butane-2-sulfonamide]: the EC50 turned out to be 0.62 nM.

As to `C=CCO[C@@H](c1ncc(F)cn1)[C@@H](C)S(=O)(=O)Nc1nnc(-c2nc(C)cs2)n1-c1c(OC)cccc1OC` (single isomer, unassigned) [Example 169.0, (1S,2R)-1-(Allyloxy)-N-(4-(2,6-dimethoxyphenyl)-5-(4-methylthiazol-2-yl)-4H-1,2,4-triazol-3-yl)-1-(5-fluoropyrimidin-2-yl)propane-2-sulfonamide or (1R,2S)-1-(allyloxy)-N-(4-(2,6-dimethoxyphenyl)-5-(4-methylthiazol-2-yl)-4H-1,2,4-triazol-3-yl)-1-(5-fluoropyrimidin-2-yl)propane-2-sulfonamide], the EC50 was 0.46 nM.
